Earlier results on four compounds are cited in US20170333404A1, “IMPROVED FORMULATIONS OF VEMURAFENIB AND METHODS OF MAKING THE SAME” (DISPERSOL TECHNOLOGIES, LLC, priority 2014, published 2017).

In data set [1] the test system is BRAFV600E/K mutant advanced or malignant melanoma. The note with it: Trametinib arm.
For data set [2] the following is noted: compared to the crystalline form.
A further data set has as its system V600E mutation in b-raf. The note with it: patients with a V600E mutation in b-raf.
Assay in data set [3]: not given
This is another data set of the same source.

The test system of the next data set is melanoma. The note with it: at 5 years, adjuvant treatment.

Consider `CC(=O)Nc1cccc(-n2c(=O)n(C3CC3)c(=O)c3c(Nc4ccc(I)cc4F)n(C)c(=O)c(C)c32)c1` [Trametinib], for which, in data set [1], the “Grade 3 adverse effect: hypertension” value is reported as 12% and the “Grade 3 adverse effect: rash” value is 7%.

With `CCCS(=O)(=O)Nc1ccc(F)c(C(=O)c2c[nH]c3ncc(-c4ccc(Cl)cc4)cc23)c1F` [amorphous form of vemurafenib, vemurafenib], the solubility in water entry in data set [2] was “improved solubility in water”.

For `CCCS(=O)(=O)Nc1ccc(F)c(C(=O)c2c[nH]c3ncc(-c4ccc(Cl)cc4)cc23)c1F` [vemurafenib], under “BRIM-2, 132 patients”, the “arthralgia, patients” value was 58%; the “photosensitivity, patients” value is on record as 52%; the “skin rash, patients” value is 52%. In addition, the “patients in whom dose modification was necessary” value (BRIM-2, to manage side effects) is 45%. Besides, the “patients with reduced numbers of cancer cells” value in the data set on advanced melanoma (group of 16 patients with advanced melanoma) is given as “over half”. The “median increased survival time over the control group” value with advanced melanoma (treated group vs control group) is given as 6 months. Moreover, in the data set on melanoma cell lines (melanoma cell lines), the programmed cell death entry is given as “cause programmed cell death”. Besides, in the data set on melanoma cell lines (melanoma cells without BRAF V600E/V600K mutations), the “inhibition of melanoma cells” value is recorded as “not inhibited”. For the same compound, the “patients showing partial to complete regression” value in the data set with V600E mutation in b-raf was about 80%. For the same compound, the “patients with skin lesions that may need surgical removal” value in data set [3] (at MTD of 960 mg twice a day) was 31%. Besides, the “maximum tolerated dose (MTD)” value in data set [3] (patients) is given as 960 mg twice a day.

As for interferon, the increase in survival in the data set with melanoma is recorded as 3%.
